PubChem BioAssay AID272 (DTP/NCI, 2004)
Several values for one entry are separate records, joined by “and”; a condition that tells them apart may be missing. Identical values can stand only once. Inconclusive results are not listed.

Test system: Lewis lung carcinoma i.m., BDF1 mice, T/C %
Assay: NCI In Vivo Anticancer Drug Screen. Data for tumor model Lewis Lung Carcinoma (intramuscular) in B6D2F1 (BDF1) mice
In short: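 Value is the ratio of a treated-group measurement (T) to the matching vehicle-control measurement (C), using either survival or tumour size in mice bearing transplanted tumours.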

[1] = endpoint: median survival time, dose: 0.1 mg/kg/injection, schedule: Q01DX011 (ip), vehicle: saline, higher = longer survival

For `N=[N+]=CC(=O)CCC(NC(=O)C(CCC(=O)C=[N+]=N)NC(=O)CCC(N)C(=O)O)C(=O)O` (configuration not stated), the T/C (endpoint: mean tumor weight, dose: 7.5 micrograms/kg/injection, schedule: Q01DX011 (ip), vehicle: water, higher = larger tumour) was 63 % of control, the T/C (endpoint: mean tumor weight, dose: 15.0 micrograms/kg/injection, schedule: Q01DX011 (ip), vehicle: water, higher = larger tumour) was 66 % of control and the T/C (endpoint: mean tumor weight, dose: 30.0 micrograms/kg/injection, schedule: Q01DX011 (ip), vehicle: water, higher = larger tumour) was 60 % of control. For the same compound, the T/C (endpoint: mean tumor weight, dose: 60.0 micrograms/kg/injection, schedule: Q01DX011 (ip), vehicle: water, higher = larger tumour) was 63 % of control, the T/C [1] was 88 % of control and 101 % of control and the T/C (endpoint: median survival time, dose: 0.2 mg/kg/injection, schedule: Q01DX011 (ip), vehicle: saline, higher = longer survival) was 106 % of control. For the same compound, the T/C (endpoint: median survival time, dose: 0.4 mg/kg/injection, schedule: Q01DX011 (ip), vehicle: saline, higher = longer survival) was 101 % of control and 103 % of control, the T/C (endpoint: median survival time, dose: 0.8 mg/kg/injection, schedule: Q01DX011 (ip), vehicle: saline, higher = longer survival) was 87 % of control and the T/C (endpoint: median survival time, dose: 1.6 mg/kg/injection, schedule: Q01DX011 (ip), vehicle: saline, higher = longer survival) was 87 % of control. The T/C (endpoint: median survival time, dose: 7.5 micrograms/kg/injection, schedule: Q01DX011 (ip), vehicle: water, higher = longer survival) was 104 % of control, the T/C (endpoint: median survival time, dose: 12.5 micrograms/kg/injection, schedule: Q01DX009 (ip), vehicle: Klucel (hydroxypropylcellulose) (HPC), higher = longer survival) was 97 % of control and the T/C (endpoint: median survival time, dose: 15.0 micrograms/kg/injection, schedule: Q01DX011 (ip), vehicle: water, higher = longer survival) was 106 % of control. The T/C (endpoint: median survival time, dose: 25.0 micrograms/kg/injection, schedule: Q01DX009 (ip), vehicle: Klucel (hydroxypropylcellulose) (HPC), higher = longer survival) was 98 % of control, the T/C (endpoint: median survival time, dose: 30.0 micrograms/kg/injection, schedule: Q01DX011 (ip), vehicle: water, higher = longer survival) was 97 % of control and the T/C (endpoint: median survival time, dose: 50.0 micrograms/kg/injection, schedule: Q01DX009 (ip), vehicle: Klucel (hydroxypropylcellulose) (HPC), higher = longer survival) was 90 % of control. The T/C (endpoint: median survival time, dose: 60.0 micrograms/kg/injection, schedule: Q01DX011 (ip), vehicle: water, higher = longer survival) was 102 % of control and the T/C (endpoint: median survival time, dose: 100.0 micrograms/kg/injection, schedule: Q01DX009 (ip), vehicle: Klucel (hydroxypropylcellulose) (HPC), higher = longer survival) was 98 % of control.
With `C[C@H]1CN1C1=CC(=O)C(N2C[C@@H]2C)=CC1=O` the T/C (endpoint: median survival time, dose: 0.5 mg/kg/injection, schedule: Q01DX011 (ip), vehicle: saline with Tween-80, higher = longer survival) was 102 % of control, the T/C (endpoint: median survival time, dose: 1.0 mg/kg/injection, schedule: Q01DX011 (ip), vehicle: saline with Tween-80, higher = longer survival) was 113 % of control and the T/C (endpoint: median survival time, dose: 4.0 mg/kg/injection, schedule: Q01DX011 (ip), vehicle: saline with Tween-80, higher = longer survival) was 108 % of control.
`OCN(CO)c1nc(N(CO)CO)nc(N(CO)CO)n1` was tested, and the T/C (endpoint: mean tumor weight (est.), dose: 25.0 mg/kg/injection, schedule: Q01DX011 (ip), vehicle: saline with Tween-80, higher = larger tumour) was 112 % of control, the T/C (endpoint: mean tumor weight (est.), dose: 50.0 mg/kg/injection, schedule: Q01DX011 (ip), vehicle: saline with Tween-80, higher = larger tumour) was 85 % of control and the T/C (endpoint: mean tumor weight (est.), dose: 100.0 mg/kg/injection, schedule: Q01DX011 (ip), vehicle: saline with Tween-80, higher = larger tumour) was 116 % of control. For the same compound, the T/C (endpoint: mean tumor weight (est.), dose: 200.0 mg/kg/injection, schedule: Q01DX011 (ip), vehicle: saline with Tween-80, higher = larger tumour) was 120 % of control and the T/C (endpoint: mean tumor weight (est.), dose: 400.0 mg/kg/injection, schedule: Q01DX011 (ip), vehicle: saline with Tween-80, higher = larger tumour) was 73 % of control.
With `CCN(CC)CCCC(C)Nc1c2ccccc2nc2c(Cl)cccc12` (configuration not stated) the T/C (endpoint: mean tumor weight (est.), dose: 7.5 mg/kg/injection, schedule: Q01DX011 (ip), vehicle: saline, higher = larger tumour) was 81 % of control, the T/C (endpoint: mean tumor weight (est.), dose: 15.0 mg/kg/injection, schedule: Q01DX011 (ip), vehicle: saline, higher = larger tumour) was 96 % of control and the T/C (endpoint: mean tumor weight (est.), dose: 30.0 mg/kg/injection, schedule: Q01DX011 (ip), vehicle: saline, higher = larger tumour) was 95 % of control.
With `Nc1nc(=O)n(C2OC(CO)C(O)C2O)cc1F` (configuration not stated) the T/C (endpoint: median survival time, dose: 4.0 mg/kg/injection, schedule: Q01DX011 (ip), vehicle: saline, higher = longer survival) was 98 % of control, the T/C (endpoint: median survival time, dose: 8.0 mg/kg/injection, schedule: Q01DX011 (ip), vehicle: saline, higher = longer survival) was 117 % of control and the T/C (endpoint: median survival time, dose: 16.0 mg/kg/injection, schedule: Q01DX011 (ip), vehicle: saline, higher = longer survival) was 98 % of control. The T/C (endpoint: median survival time, dose: 32.0 mg/kg/injection, schedule: Q01DX011 (ip), vehicle: saline, higher = longer survival) was 110 % of control.
With `CC1CC(C)(O)CC(C(O)CC2CC(=O)NC(=O)C2)C1=O` (configuration not stated) the T/C (endpoint: mean tumor weight, dose: 0.1 mg/kg/injection, schedule: Q01DX011 (ip), vehicle: saline, higher = larger tumour) was 56 % of control and the T/C [1] was 90 % of control.
For `Oc1c(Cl)cc(Cl)c2cccnc12`, the T/C (endpoint: mean tumor weight, dose: 6.25 mg/kg/injection, schedule: Q01DX011 (ip), vehicle: saline with Tween-80, higher = larger tumour) was 60 % of control, the T/C (endpoint: mean tumor weight, dose: 12.5 mg/kg/injection, schedule: Q01DX011 (ip), vehicle: saline with Tween-80, higher = larger tumour) was 19 % of control and the T/C (endpoint: median survival time, dose: 6.25 mg/kg/injection, schedule: Q01DX011 (ip), vehicle: saline with Tween-80, higher = longer survival) was 122 % of control.
